Source: ChEMBL document CHEMBL3352684, “Discovery of MK-3697: a selective orexin 2 receptor antagonist (2-SORA) for the treatment of insomnia” (Bioorg Med Chem Lett, 2014)
Where a chain is given by its changes, count along the chain named. Calls of active or inactive are those of the source. The calls are words filed in the database; no cut-off is given here.

Columns and labels:
Cytochrome P450 2D6 = Cytochrome P450 2D6 (Homo sapiens, UniProt P10635); assay: Reversible inhibition of CYP2D6 (unknown origin); type: ADME
Orexin receptor type 2 [1] = target: T1, Orexin receptor type 2 (Homo sapiens, UniProt O43614); assay: Antagonist activity at human OX2R expressed in CHO cells assessed as inhibition of Ala-6,12-orexinA-induced effect after 5 mins by FLIPR assay; type: cell-based
T1 sequence (O43614 whole entry): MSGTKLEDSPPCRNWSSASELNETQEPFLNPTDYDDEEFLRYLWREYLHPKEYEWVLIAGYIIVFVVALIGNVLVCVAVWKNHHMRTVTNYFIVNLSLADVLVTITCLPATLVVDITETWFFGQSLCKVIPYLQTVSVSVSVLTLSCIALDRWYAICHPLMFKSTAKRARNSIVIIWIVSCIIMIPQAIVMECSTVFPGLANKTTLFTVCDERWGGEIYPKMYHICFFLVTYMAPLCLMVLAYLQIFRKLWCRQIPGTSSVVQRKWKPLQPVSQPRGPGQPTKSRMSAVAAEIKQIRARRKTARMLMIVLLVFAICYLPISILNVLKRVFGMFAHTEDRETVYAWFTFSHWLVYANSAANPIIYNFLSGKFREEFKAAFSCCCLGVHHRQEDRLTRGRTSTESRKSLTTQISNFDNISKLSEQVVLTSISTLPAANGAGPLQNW

Orexin receptor type 2 [2] = target: T1, Orexin receptor type 2; assay: Displacement of (S)-N-(2-(1H-pyrrol-1-yl)phenyl)-1-(2-([3H]-1-methyl-1H-benzo[d]imidazol-2-ylthio)acetyl)pyrrolidine-2-carboxamide from human OX2R expressed in CHO cells after 3 hrs by topcount analysis; type: cell-based
[3] = AUC (0 to infinity) in dog at 3 mg/kg, po; type: ADME, organism-based, Canis lupus familiaris; design: time infinity, dose 3 mg/kg, route oral; conditions: plasma
Rattus norvegicus [4] = assay: Reduction in active wake sleep in Sprague-Dawley rat at 15 mg/kg, po after 2 hrs; type: functional, organism-based; design: dose 15 mg/kg
Canis familiaris [5] = assay: Reduction in active wake sleep in dog at 3 mg/kg, po after 2 hrs; type: functional, organism-based; design: dose 3 mg/kg; conditions: Canis lupus familiaris
[6] = Plasma protein binding in dog; type: ADME, cell-free, Canis lupus familiaris; conditions: read-out: PPB (converted)
[7] = Drug uptake in mouse CSF at 100 mg/kg, po after 2 hrs; type: ADME, organism-based; design: dose 100 mg/kg, route oral; conditions: cerebrospinal fluid, read-out: Drug uptake
[8] = Half life in rat at 2 mg/kg, iv; type: ADME, organism-based; design: dose 2 mg/kg, route intravenous; conditions: in vivo
[9] = Cmax in rat at dog at 3 mg/kg, po; type: ADME, organism-based, Canis lupus familiaris; design: dose 3 mg/kg, route oral; conditions: in vivo
Cytochrome P450 2C9 = Cytochrome P450 2C9 (Homo sapiens, UniProt P11712); assay: Reversible inhibition of CYP2C9 (unknown origin); type: ADME
[10] = target: T2, Orexin receptor type 2 (Mus musculus) (UniProt P58308); assay: Antagonist activity at mouse OX2R by FLIPR assay
T2 sequence (whole entry): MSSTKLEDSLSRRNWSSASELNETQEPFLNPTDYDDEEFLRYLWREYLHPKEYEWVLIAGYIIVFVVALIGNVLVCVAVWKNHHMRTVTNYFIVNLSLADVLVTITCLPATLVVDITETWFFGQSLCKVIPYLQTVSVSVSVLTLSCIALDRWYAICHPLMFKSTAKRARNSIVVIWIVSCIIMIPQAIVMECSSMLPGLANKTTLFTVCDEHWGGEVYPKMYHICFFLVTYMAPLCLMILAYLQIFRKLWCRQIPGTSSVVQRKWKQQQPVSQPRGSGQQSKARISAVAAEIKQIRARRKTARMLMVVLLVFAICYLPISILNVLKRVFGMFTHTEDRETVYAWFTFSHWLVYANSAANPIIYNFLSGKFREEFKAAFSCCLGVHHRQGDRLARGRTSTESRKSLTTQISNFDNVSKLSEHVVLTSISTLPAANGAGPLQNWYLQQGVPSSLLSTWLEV

Mus musculus = assay: Increase in slow wave sleep in OX2R-knockout mouse at 100 mg/kg, po after 2 hrs; type: functional, organism-based; design: dose 100 mg/kg
[11] = AUC in dog at 3 mg/kg, po; type: ADME, organism-based, Canis lupus familiaris; design: dose 3 mg/kg, route oral; conditions: plasma
Rattus norvegicus [12] = assay: Increase in rapid eye movement sleep in Sprague-Dawley rat at 15 mg/kg, po after 2 hrs; type: functional, organism-based; design: dose 15 mg/kg
Canis familiaris [13] = assay: Increase in slow wave sleep in dog at 3 mg/kg, po after 2 hrs; type: functional, organism-based; design: dose 3 mg/kg; conditions: Canis lupus familiaris
[14] = AUC in Sprague-Dawley rat at 15 mg/kg, po; type: ADME, organism-based; design: dose 15 mg/kg, route oral; conditions: plasma
Rattus norvegicus [15] = organism: Rattus norvegicus; assay: Ex vivo receptor occupancy at human OX2R expressed in transgenic rat at CSF concentration of 40 nM; type: functional
[16] = AUC (0 to infinity) in rat at 5 mg/kg, po; type: ADME, organism-based; design: time infinity, dose 5 mg/kg, route oral; conditions: plasma
[17] = Half life in dog at 1 mg/kg, iv; type: ADME, organism-based, Canis lupus familiaris; design: dose 1 mg/kg, route intravenous; conditions: in vivo
[18] = target: T3, Orexin receptor type 2 (Rattus norvegicus) (UniProt P56719); assay: Antagonist activity at Sprague-Dawley rat OX2R by FLIPR assay
T3 sequence (whole entry): T2 sequence (whole entry) with S11P, C193R, H213R, I240V, Q269P, H387R, V424A

[19] = Oral bioavailability in rat at 5 mg/kg; type: ADME, organism-based; conditions: in vivo
[20] = Tmax in mouse at 100 mg/kg, po; type: ADME, organism-based; design: dose 100 mg/kg, route oral; conditions: in vivo
[21] = Clearance in rat at 2 mg/kg, iv; type: ADME, organism-based; design: dose 2 mg/kg, route intravenous; conditions: in vivo

Sequence of Cytochrome P450 2D6 (P10635 whole entry): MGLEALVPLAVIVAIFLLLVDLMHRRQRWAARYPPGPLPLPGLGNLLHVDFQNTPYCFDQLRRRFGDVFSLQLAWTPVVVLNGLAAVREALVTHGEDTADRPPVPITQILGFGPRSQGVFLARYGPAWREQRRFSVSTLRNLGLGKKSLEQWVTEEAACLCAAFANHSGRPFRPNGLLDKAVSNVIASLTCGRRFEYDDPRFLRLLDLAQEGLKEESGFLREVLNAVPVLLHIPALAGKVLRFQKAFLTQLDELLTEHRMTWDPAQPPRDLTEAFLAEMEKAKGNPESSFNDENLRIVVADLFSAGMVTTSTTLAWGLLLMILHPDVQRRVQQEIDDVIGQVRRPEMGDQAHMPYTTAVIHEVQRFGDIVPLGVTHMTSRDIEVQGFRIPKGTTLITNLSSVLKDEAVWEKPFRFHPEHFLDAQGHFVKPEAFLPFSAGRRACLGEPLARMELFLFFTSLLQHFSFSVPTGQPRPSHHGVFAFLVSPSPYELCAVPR
Sequence of Cytochrome P450 2C9 (P11712 whole entry): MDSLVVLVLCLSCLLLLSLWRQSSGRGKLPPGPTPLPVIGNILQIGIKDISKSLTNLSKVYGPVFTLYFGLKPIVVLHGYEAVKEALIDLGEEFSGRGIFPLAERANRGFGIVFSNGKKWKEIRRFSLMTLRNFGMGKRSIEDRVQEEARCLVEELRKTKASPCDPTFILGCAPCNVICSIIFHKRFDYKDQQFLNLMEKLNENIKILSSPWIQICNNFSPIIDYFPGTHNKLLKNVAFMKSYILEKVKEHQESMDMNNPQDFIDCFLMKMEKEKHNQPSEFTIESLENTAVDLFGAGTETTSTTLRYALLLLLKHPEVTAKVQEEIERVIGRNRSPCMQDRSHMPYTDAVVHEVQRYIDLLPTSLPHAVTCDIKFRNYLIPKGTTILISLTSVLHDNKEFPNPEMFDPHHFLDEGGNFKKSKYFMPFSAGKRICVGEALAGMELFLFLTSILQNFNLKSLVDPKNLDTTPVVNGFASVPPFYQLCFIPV

IC50 (Cytochrome P450 2D6): > 50 µM
IC50 (Orexin receptor type 2 [1]): 0.016 µM
Ki (Orexin receptor type 2 [2]): 0.0011 µM
AUC(0-inf) [3]: 7.5 µM·h
fraction unbound [6]: 0.169
concentration at 2 h [7]: 4.9 µM
half-life [8]: 0.4 h
Cmax [9]: 2.1 µM
IC50 (Cytochrome P450 2C9): > 50 µM
INH [10]: 12 nM
AUC [11]: 9 µM·h
AUC [14]: 17.2 µM·h
AUC(0-inf) [16]: 3 µM·h
half-life [17]: 1.2 h
INH [18]: 31 nM
bioavailability [19]: 64%
Tmax [20]: 2 h
clearance [21]: 2.44 L/h/kg
SMILES: COc1ccc(CNC(=O)c2cc(-c3cncc(C)c3)ncc2-c2nccs2)nc1OC
Activity (Rattus norvegicus [4]): Active
Activity (Canis familiaris [5]): Active
Activity (Mus musculus): inactive
Activity (Rattus norvegicus [12]): Active
Activity (Canis familiaris [13]): Active
Occ (Rattus norvegicus [15]): 90%
